Laboratory results published in PubChem BioAssay AID1259411 (Chemical Carcinogenesis Research Information System (CCRIS), 2018).
The source made the active and inactive calls. How the calls were made is not given here.

Tested on: rodent carcinogenicity bioassays, tumor incidence
Experiment: CCRIS carcinogenicity studies
Details: Dose: 0, Dose: 0
Outline: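 Archive of carcinogenicity, mutagenicity, tumor promotion and tumor inhibition results drawn from journals, NCI reports and other sources, expert-reviewed; covers 1985-2011 and is no longer updated.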

Compound: [Cl][Sn][Cl]
- carcinogen call (Species: MOUSE, Strain/Sex: B6C3F1/FEMALE, Route: ORAL, 1000, 2000 PPM IN DIET FOR 105 WK (STUDY DURATION: 105 WK), 1000, 2000 PPM IN DIET FOR 105 WK (STUDY DURATION: 105 WK)): inactive; negative
- carcinogen call (Species: MOUSE, Strain/Sex: B6C3F1/MALE, Route: ORAL, 1000, 2000 PPM IN DIET FOR 105 WK (STUDY DURATION: 105 WK), 1000, 2000 PPM IN DIET FOR 105 WK (STUDY DURATION: 105 WK)): inactive; negative
- carcinogen call (Species: RAT, Strain/Sex: F344/FEMALE, Route: ORAL, 1000, 2000 PPM IN DIET FOR 105 WK (STUDY DURATION: 105 WK), 1000, 2000 PPM IN DIET FOR 105 WK (STUDY DURATION: 105 WK)): inactive; negative
- carcinogen call (Species: RAT, Strain/Sex: F344/MALE, Route: ORAL, 1000, 2000 PPM IN DIET FOR 105 WK (STUDY DURATION: 105 WK), 1000, 2000 PPM IN DIET FOR 105 WK (STUDY DURATION: 105 WK), Tumor Site: Type of Lesion: THYROID GLAND: C-CELL ADENOMA, C-CELL ADENOMA OR CARCINOMA): equivocal

Compound: Cc1c(N)cccc1N
- carcinogen call (Species: MOUSE, Strain/Sex: B6C3F1/FEMALE, Route: ORAL, 50, 100 PPM IN DIET, 50, 100 PPM IN DIET): inactive; negative
- carcinogen call (Species: MOUSE, Strain/Sex: B6C3F1/MALE, Route: ORAL, 50, 100 PPM IN DIET, 50, 100 PPM IN DIET): inactive; negative
- carcinogen call (Species: RAT, Strain/Sex: F344/FEMALE, Route: ORAL, 250, 500 PPM IN DIET, 250, 500 PPM IN DIET): inactive; negative
- carcinogen call (Species: RAT, Strain/Sex: F344/MALE, Route: ORAL, 250, 500 PPM IN DIET, 250, 500 PPM IN DIET): inactive; negative

Compound: Cc1cc(O)c2c(c1)C(=O)c1cc(O)cc(O)c1C2=O
- carcinogen call (Species: MOUSE, Strain/Sex: B6C3F1/FEMALE, Route: ORAL, 312, 625, 1250 PPM IN DIET FOR 105 WK (STUDY DURATION: 105 WK), 312, 625, 1250 PPM IN DIET FOR 105 WK (STUDY DURATION: 105 WK)): inactive; negative
- carcinogen call (Species: MOUSE, Strain/Sex: B6C3F1/MALE, Route: ORAL, 160, 312, 625 PPM IN DIET FOR 105 WK (STUDY DURATION: 105 WK), 160, 312, 625 PPM IN DIET FOR 105 WK (STUDY DURATION: 105 WK), Tumor Site: Type of Lesion: KIDNEY: RENAL TUBULE ADENOMA, RENAL TUBULE CARCINOMA, RENAL TUBULE ADENOMA OR CARCINOMA): equivocal
- carcinogen call (Species: RAT, Strain/Sex: F344/FEMALE, Route: ORAL, 280, 830, 2500 PPM IN DIET FOR 105 WK (STUDY DURATION: 105 WK), 280, 830, 2500 PPM IN DIET FOR 105 WK (STUDY DURATION: 105 WK), Tumor Site: Type of Lesion: ZYMBAL GLAND: CARCINOMA): equivocal
- carcinogen call (Species: RAT, Strain/Sex: F344/MALE, Route: ORAL, 280, 830, 2500 PPM IN DIET FOR 105 WK (STUDY DURATION: 105 WK), 280, 830, 2500 PPM IN DIET FOR 105 WK (STUDY DURATION: 105 WK)): inactive; negative

Compound: O=C1[C@H]2CC=CC[C@H]2C(=O)N1SC(Cl)(Cl)Cl
- carcinogen call (Species: MOUSE, Strain/Sex: B6C3F1/MALE, Route: ORAL, 8000, 16000 PPM IN DIET, 8000, 16000 PPM IN DIET, Tumor Site: Type of Lesion: DUODENUM: ADENOMATOUS POLYP (NOS) OR ADENOCARCINOMA IN ADENOMATOUS POLYP): active; positive
- carcinogen call (Species: MOUSE, Strain/Sex: SWISS/FEMALE, Route: DERMAL, 450 UG IN 200 µL DMSO 3/WK FOR 52 WK (STUDY DURATION: 52 WK)): inactive; negative
- carcinogen call (Species: Mouse, Strain/Sex: Swiss CD-1/Female (80/dose), Route: Oral, 2000/6000, 6000/10,000, 10,000/16,000 ppm in diet for 113 wk (lower dose first 4 wk, higher dose for remainder of stu, 2000/6000, 6000/10,000, 10,000/16,000 ppm in diet for 113 wk (lower dose first 4 wk, higher dose for remainder of stu): inactive; negative (purity of 90.7%; study details not given in source)
- carcinogen call (Species: Mouse, Strain/Sex: Swiss CD-1/Male (80/dose), Route: Oral, 2000/6000, 6000/10,000, 10,000/16,000 ppm in diet for 113 wk (lower dose first 4 wk, higher dose for remainder of stu, 2000/6000, 6000/10,000, 10,000/16,000 ppm in diet for 113 wk (lower dose first 4 wk, higher dose for remainder of stu, Tumor Site: Type of Lesion: INTESTINE: Adenomas and adenocarcinomas in jejunum): active; positive (10,000 ppm group) (purity of 90.7%; study details n ot given in source
- carcinogen call (Species: RAT, Strain/Sex: OSBORNE-MENDEL/FEMALE, Route: ORAL, 2525, 6060 PPM IN DIET, TWA, 2525, 6060 PPM IN DIET, TWA): inactive; negative
- carcinogen call (Species: RAT, Strain/Sex: OSBORNE-MENDEL/MALE, Route: ORAL, 2525, 6060 PPM IN DIET, TWA, 2525, 6060 PPM IN DIET, TWA): inactive; negative
- carcinogen call (Species: Rat, Strain/Sex: CD/Female (50/group), Route: Oral, 25, 100, 250 mg/kg/day in diet for 2 yr, 25, 100, 250 mg/kg/day in diet for 2 yr): inactive; negative (purity of 89%; study details not given in source)
- carcinogen call (Species: Rat, Strain/Sex: CD/Male (50/group), Route: Oral, 25, 100, 250 mg/kg/day in diet for 2 yr, 25, 100, 250 mg/kg/day in diet for 2 yr, Tumor Site: Type of Lesion: KIDNEY: Renal tubular adenomas or carcinomas (1, 1, 3, 4)): active; positive (purity of 89%; study details not given in source)

Compound: CN(C)c1ccc(Cc2ccc(N(C)C)cc2)cc1
- carcinogen call (Species: MOUSE, Strain/Sex: B6C3F1/FEMALE, Route: ORAL, 1250, 2500 PPM IN DIET FOR 78 WK (STUDY DURATION: 91 WK), 1250, 2500 PPM IN DIET FOR 78 WK (STUDY DURATION: 91 WK), Tumor Site: Type of Lesion: LIVER: HEPATOCELLULAR ADENOMA OR CARCINOMA): active; positive
- carcinogen call (Species: MOUSE, Strain/Sex: B6C3F1/MALE, Route: ORAL, 1250, 2500 PPM IN DIET FOR 78 WK (STUDY DURATION: 91 WK), 1250, 2500 PPM IN DIET FOR 78 WK (STUDY DURATION: 91 WK), Tumor Site: Type of Lesion: LIVER: HEPATOCELLULAR ADENOMA OR CARCINOMA): equivocal
- carcinogen call (Species: RAT, Strain/Sex: F344/FEMALE, Route: ORAL, 0.0375, 0.075% IN DIET FOR 59 WK (STUDY DURATION: 2 YR), 0.0375, 0.075% IN DIET FOR 59 WK (STUDY DURATION: 2 YR), Tumor Site: Type of Lesion: THYROID GLAND: FOLLICULAR CARCINOMA): active; positive
- carcinogen call (Species: RAT, Strain/Sex: F344/FEMALE, Route: ORAL, 375, 750 PPM IN DIET FOR 59 WK (STUDY DURATION: 104 WK), 375, 750 PPM IN DIET FOR 59 WK (STUDY DURATION: 104 WK), Tumor Site: Type of Lesion: THYROID GLAND: FOLLICULAR CELL ADENOMA OR CARCINOMA): active; positive
- carcinogen call (Species: RAT, Strain/Sex: F344/MALE, Route: ORAL, 0.0375, 0.075% IN DIET FOR 59 WK (STUDY DURATION: 2 YR), 0.0375, 0.075% IN DIET FOR 59 WK (STUDY DURATION: 2 YR), Tumor Site: Type of Lesion: THYROID GLAND: FOLLICULAR CARCINOMA): active; positive
- carcinogen call (Species: RAT, Strain/Sex: F344/MALE, Route: ORAL, 375, 750 PPM IN DIET FOR 59 WK (STUDY DURATION: 104 WK), 375, 750 PPM IN DIET FOR 59 WK (STUDY DURATION: 104 WK), Tumor Site: Type of Lesion: THYROID GLAND: FOLLICULAR CELL ADENOMA OR CARCINOMA): active; positive

Compound: N#CC(Br)Br
- carcinogen call (Species: Mouse, Strain/Sex: B6C3F1/Female (50/group), Route: Oral, 50, 100, 200 mg/l in drinking water for 2 yr, 50, 100, 200 mg/l in drinking water for 2 yr, Tumor Site: Type of Lesion: Forestomach: squamous cell papilloma and squamous cell carcinoma combined (1/50, 0/50, 5/50, 14/50)): active; positive (ntp describes as clear evidence)
- carcinogen call (Species: Mouse, Strain/Sex: B6C3F1/Male (50/group), Route: Oral, 50, 100, 200 mg/l in drinking water for 2 yr, 50, 100, 200 mg/l in drinking water for 2 yr, Tumor Site: Type of Lesion: Forestomach: squamous cell papilloma and squamous cell carcinoma combined (0/50, 1/50, 0/50, 5/50). Liver: hepatoblastom): active; positive (ntp describes as clear evidence)
- carcinogen call (Species: Rat, Strain/Sex: F344/N / Female (50/group), Route: Oral, 50, 100, 200 mg/l in drinking water for 2 yr, 50, 100, 200 mg/l in drinking water for 2 yr, Tumor Site: Type of Lesion: Oral Cavity (oral mucosa or tongue): squamous cell papilloma (1/50, 0/50, 4/50, 0/50). Skin: squamous cell papilloma, ke): active; positive (ntp describes as some evidence)
- carcinogen call (Species: Rat, Strain/Sex: F344/N / Male (50/group), Route: Oral, 50, 100, 200 mg/l in drinking water for 2 yr, 50, 100, 200 mg/l in drinking water for 2 yr, Tumor Site: Type of Lesion: Oral Cavity (oral mucosa or tongue): squamous cell papilloma and carcinoma combined (0/50, 0/50, 2/50, 5/50) (Statistica): active; positive (ntp describes as clear evidence)
